Some test systems named below: DMS 114 small cell lung; MALME-3M melanoma; HOP-92 NSCLC; HT29 colon; COLO 205 colon; LXFL 529 NSCLC; SK-MEL-5 melanoma; TK-10 renal; 786-0 renal; SR leukemia; MDA-N.
Assay in all cases: NCI anticancer screen, dose series, 48 h

The structures appear in SMILES notation.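 Where inhibition never reached the appropriate level, the endpoint shown equals the highest concentration tested. Otherwise, values were interpolated linearly from a five-concentration, 48-hour dose response in 96-well plates. GI50 = concentration required for 50% inhibition of growth. TGI marks complete inhibition of growth.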

Regarding `C=CCN1CCC23c4c5ccc(O)c4OC2C(=NN=C2CCC4(O)C6Cc7ccc(O)c8c7C4(CCN6CC=C)C2O8)CCC3(O)C1C5` (stereo not drawn), the TGI was 60.8 µM in the experiment with DMS 114 small cell lung; 33.4 µM in the experiment on MALME-3M melanoma; 39.9 µM with HOP-92 NSCLC; 37.6 µM in the experiment with HT29 colon; 42.1 µM in the experiment with COLO 205 colon; 88.7 µM in the experiment with LXFL 529 NSCLC. Moreover, the TGI amounted to 36.3 µM in the experiment on SK-MEL-5 melanoma, 43.7 µM in the experiment on TK-10 renal and 35.3 µM in the experiment on 786-0 renal.

Regarding `CC(C)(C)[Si](C)(C)OC1C(=O)C[C@H]2CCCC[C@@H]12` (stereo partly drawn), the TGI with DMS 114 small cell lung, in the experiment on MALME-3M melanoma, in the experiment with HOP-92 NSCLC, with HT29 colon, with COLO 205 colon and with LXFL 529 NSCLC was above 100 µM in each case. For the same compound, the TGI in the experiment with SK-MEL-5 melanoma, with TK-10 renal and with 786-0 renal was above 100 µM throughout.

With `O=C(CNS(=O)(=O)Cc1ccccc1)NNc1ccccc1`, the TGI was above 100 µM with MALME-3M melanoma; above 100 µM in the experiment with HOP-92 NSCLC; above 100 µM in the experiment with HT29 colon; 12.4 µM with COLO 205 colon; above 100 µM in the experiment on SR leukemia; above 100 µM with SK-MEL-5 melanoma. In addition, the TGI in the experiment on MDA-N, in the experiment with TK-10 renal and with 786-0 renal was above 100 µM each time.

For `Cn1c2ccccc2c2ncc3[nH]c4ccccc4c3c21`, the TGI in the experiment on DMS 114 small cell lung is 54.3 µM; in the experiment on MALME-3M melanoma, above 100 µM; in the experiment on HOP-92 NSCLC it was 56.8 µM; in the experiment on HT29 colon it was 31.1 µM; with COLO 205 colon it was 39.1 µM; in the experiment with LXFL 529 NSCLC, 80.1 µM. The TGI with SK-MEL-5 melanoma is 40 µM; in the experiment with TK-10 renal, 45.1 µM; with 786-0 renal it was above 100 µM.

As for `C[C@]12CCC(=O)C=C1CC[C@@H]1C2CC[C@]2(C)Nc3[nH]ncc3CC12` (stereo partly drawn), the TGI with DMS 114 small cell lung, in the experiment with MALME-3M melanoma, in the experiment with HT29 colon, in the experiment on LXFL 529 NSCLC, in the experiment on SK-MEL-5 melanoma and with TK-10 renal was above 100 µM each time. The TGI in the experiment with 786-0 renal was above 100 µM.

Consider `Cc1cc2cc3c(=O)[nH]c(=O)[nH]c3nc2cc1C`, for which the TGI in the experiment with MALME-3M melanoma, with HOP-92 NSCLC, in the experiment with HT29 colon, in the experiment with COLO 205 colon, in the experiment on SR leukemia and in the experiment with SK-MEL-5 melanoma was above 100 µM in each case. For the same compound, the TGI in the experiment with MDA-N, with TK-10 renal and in the experiment with 786-0 renal was above 100 µM in each case.

With `O=C(/C=C/C=C/c1ccccc1)c1ccccc1`, the TGI in the experiment with MALME-3M melanoma came to 21.6 µM; in the experiment on HOP-92 NSCLC it was 39.1 µM; in the experiment with HT29 colon it was 30.8 µM; in the experiment with COLO 205 colon, 31.5 µM; in the experiment on SR leukemia, 34.5 µM; in the experiment on SK-MEL-5 melanoma, 30.2 µM. Further, the TGI is 30.4 µM in the experiment with MDA-N, 42.3 µM in the experiment on TK-10 renal and 27.4 µM in the experiment on 786-0 renal.

Turning to `CCOC(=O)c1ccc(N=Nc2cc(C(=O)OCC)ccc2O)cc1`, the TGI with DMS 114 small cell lung, in the experiment with HOP-92 NSCLC, with HT29 colon, in the experiment with COLO 205 colon, in the experiment with LXFL 529 NSCLC and with SK-MEL-5 melanoma was above 100 µM each time. In addition, the TGI with TK-10 renal and with 786-0 renal was above 100 µM in each case.

As to `COc1ccc(C2=C(c3ccc(OC)cc3)C(=O)N3CCCC3C2)cc1` (stereo not drawn), the GI50 in the experiment on MALME-3M melanoma is 52.6 µM; in the experiment with HOP-92 NSCLC it was above 95.1 µM; in the experiment on HT29 colon, 6.19 µM; with COLO 205 colon, 7.43 µM; in the experiment with SR leukemia it was above 37.1 µM; with SK-MEL-5 melanoma it was 10.1 µM. Besides, the GI50 in the experiment with MDA-N was 12.2 µM; in the experiment on TK-10 renal, 22.8 µM; with 786-0 renal it was 9.92 µM. The TGI in the experiment with MALME-3M melanoma is above 100 µM; with HOP-92 NSCLC it was above 100 µM; in the experiment on HT29 colon, above 100 µM; in the experiment with COLO 205 colon it was above 100 µM; in the experiment with SR leukemia, above 100 µM; in the experiment on SK-MEL-5 melanoma, 84.3 µM. The TGI in the experiment on MDA-N, in the experiment on TK-10 renal and in the experiment with 786-0 renal was above 100 µM throughout.

With `O=C1CCC(=O)c2c1c(O)c1ccncc1c2O`, the TGI stood at 25.4 µM with DMS 114 small cell lung; 29.4 µM in the experiment with MALME-3M melanoma; 38.1 µM in the experiment with HOP-92 NSCLC; 21.3 µM in the experiment with HT29 colon; 20.8 µM in the experiment with COLO 205 colon; 30.2 µM in the experiment with LXFL 529 NSCLC. For the same compound, the TGI was 34.7 µM in the experiment with SR leukemia, 23.5 µM with SK-MEL-5 melanoma, 33 µM in the experiment on TK-10 renal and 29.1 µM in the experiment on 786-0 renal.

As for `COC12OCCN(C)C1=CC(=O)C1=NNC(C)C12` (stereo not drawn), the TGI in the experiment on DMS 114 small cell lung, in the experiment on HOP-92 NSCLC, in the experiment on HT29 colon, in the experiment on COLO 205 colon, in the experiment on LXFL 529 NSCLC and in the experiment with SK-MEL-5 melanoma was above 100 µM in each case. For the same compound, the TGI in the experiment on TK-10 renal and in the experiment on 786-0 renal was above 100 µM throughout.

`O=C(O)c1ccc(C(=O)O)c2c(C(=O)O)ccc(C(=O)O)c12`: the TGI with MALME-3M melanoma, in the experiment with HOP-92 NSCLC, with HT29 colon, with COLO 205 colon, in the experiment with SR leukemia and in the experiment on SK-MEL-5 melanoma was above 100 µM throughout. The TGI in the experiment with MDA-N, in the experiment with TK-10 renal and with 786-0 renal was above 100 µM throughout.

Turning to `COC(=O)C1=C(C(=O)OC)C2=S(SC3=C2CCCC3)S1` (stereo not drawn), the TGI in the experiment on MALME-3M melanoma was 71.1 µM; in the experiment with HOP-92 NSCLC, 40.3 µM; with HT29 colon, 87.8 µM; in the experiment with COLO 205 colon, above 100 µM; in the experiment on LXFL 529 NSCLC, 30 µM; in the experiment on SK-MEL-5 melanoma, 4.71 µM. Moreover, the TGI with TK-10 renal is above 100 µM; with 786-0 renal, 15.2 µM.

Regarding `CC(C)=CCc1cc2c(cc1O)OC[C@H]1c3cc4c(cc3O[C@@H]21)OCO4`, the TGI in the experiment on HOP-92 NSCLC is above 100 µM; with HT29 colon, above 100 µM; in the experiment on COLO 205 colon, above 100 µM; in the experiment with SR leukemia, above 100 µM; in the experiment on SK-MEL-5 melanoma, 39.3 µM; in the experiment with MDA-N, above 100 µM. Moreover, the TGI in the experiment on TK-10 renal and in the experiment with 786-0 renal was above 100 µM throughout.

Regarding `C[Si](C)(C)/C(I)=C/CO`, the TGI in the experiment with MALME-3M melanoma was 74.9 µM; with HOP-92 NSCLC, 54.5 µM; with HT29 colon, 44.5 µM; with COLO 205 colon, 31.1 µM; in the experiment on LXFL 529 NSCLC, above 100 µM; with SK-MEL-5 melanoma, 34.6 µM. In addition, the figures for the TGI with TK-10 renal and in the experiment with 786-0 renal were 96.9 µM and above 100 µM, respectively.
